The values below are quoted from earlier work in patent US9625473B2, “Cytokine biomarkers as predictive biomarkers of clinical response for glatiramer acetate” (TEVA PHARMACEUTICAL INDUSTRIES LTD., priority 2010, dated 2017).

The test system of data set [1] is IFN-gamma. Particulars: after stimulation with high GA concentrations, partially mediated by CD8 cells, GA-treated vs. untreated patients.
Data set [2] concerns IL-4. As to conditions: after stimulation with GA, mediated predominantly by CD4 cells, GA-treated vs. untreated patients.
Data set [3] concerns PBMC. Particulars: GA-treated vs. untreated patients.
Data set [4] deals with RRMS subjects.

Glatiramer acetate [GA]: the IFN-gamma response entry in data set [1] was “elevated”. Besides, in data set [2], the “IL-4 ELISPOT response” value is reported as “positive”. For the same substance, the “GA-induced PBMC proliferation” value in data set [3] is listed as “significant reduction”. Moreover, the “number of relapses, compared with placebo” value in data set [4] (RRMS subjects, GA 20 mg/day, three double-blind placebo-controlled studies) is “significant reduction”. In data set [4] (daily standard dose of 20 mg), the tolerability entry is given as “generally well tolerated”. Also, the relapse rate reduction in data set [4] (largest controlled study, GA 20 mg vs placebo) is reported as 32%. In data set [4] (largest controlled study, under GA 20 mg), the relapse rate is 1.34. Also, the “median cumulative number of Gd-enhancing lesions” value in data set [4] (over 9 months of treatment, 20 mg group, MRI) is listed as 11 lesions.
